#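 These data come from cells grown in 96-well plates and exposed to compound for 48 hours at five concentrations. GI50 marks 50% less growth. TGI: total growth inhibition.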
# Experiments:
# Assay in all cases: DTP human tumour cell line panel, 48 h
# T-47D breast = system: T-47D breast
# MALME-3M melanoma = system: MALME-3M melanoma
# IGROV1 ovarian = system: IGROV1 ovarian
# OVCAR-8 ovarian = system: OVCAR-8 ovarian
# SK-OV-3 ovarian = system: SK-OV-3 ovarian
# EKVX NSCLC = system: EKVX NSCLC
# SW-620 colon = system: SW-620 colon
# SN12C renal = system: SN12C renal
# HT29 colon = system: HT29 colon
# SK-MEL-28 melanoma = system: SK-MEL-28 melanoma
# SF-539 CNS = system: SF-539 CNS
# SF-295 CNS = system: SF-295 CNS
# 786-0 renal = system: 786-0 renal
# SF-268 CNS = system: SF-268 CNS
# HOP-92 NSCLC = system: HOP-92 NSCLC
# SNB-19 CNS = system: SNB-19 CNS
# MCF7 breast = system: MCF7 breast
# RPMI-8226 leukemia = system: RPMI-8226 leukemia
# CCRF-CEM leukemia = system: CCRF-CEM leukemia
# NCI-H23 lung = system: NCI-H23 lung
# HCC-2998 colon = system: HCC-2998 colon
# A498 renal = system: A498 renal
# MDA-MB-435 = system: MDA-MB-435
# NCI/ADR-RES ovarian = system: NCI/ADR-RES ovarian
# HOP-62 NSCLC = system: HOP-62 NSCLC
# NCI-H460 lung = system: NCI-H460 lung
# OVCAR-5 ovarian = system: OVCAR-5 ovarian
# COLO 205 colon = system: COLO 205 colon
# A549 NSCLC = system: A549 NSCLC
# HCT-15 colon = system: HCT-15 colon
# ACHN renal = system: ACHN renal
# DU-145 prostate = system: DU-145 prostate
# KM12 colon = system: KM12 colon
# HCT-116 colon = system: HCT-116 colon
# HS 578T breast = system: HS 578T breast
# NCI-H522 lung = system: NCI-H522 lung
# OVCAR-3 ovarian = system: OVCAR-3 ovarian
# SK-MEL-5 melanoma = system: SK-MEL-5 melanoma
# TK-10 renal = system: TK-10 renal
# U251 CNS = system: U251 CNS
# LOX IMVI melanoma = system: LOX IMVI melanoma
# PC-3 prostate = system: PC-3 prostate
# UACC-257 melanoma = system: UACC-257 melanoma
# MDA-MB-231 breast = system: MDA-MB-231 breast
# CAKI-1 renal = system: CAKI-1 renal
# M14 melanoma = system: M14 melanoma
# NCI-H226 lung = system: NCI-H226 lung
# RXF 393 renal = system: RXF 393 renal
# UO-31 renal = system: UO-31 renal
# UACC-62 melanoma = system: UACC-62 melanoma
smiles,measurement,setting,value
Cc1ccc(S(=O)(=O)N(C)C)cc1[N+](=O)[O-],GI50,T-47D breast,> 100 µM
same,TGI,T-47D breast,> 100 µM
same,GI50,MALME-3M melanoma,> 100 µM
same,TGI,MALME-3M melanoma,> 100 µM
same,GI50,IGROV1 ovarian,59.7 µM
same,TGI,IGROV1 ovarian,> 100 µM
same,GI50,OVCAR-8 ovarian,> 100 µM
same,TGI,OVCAR-8 ovarian,> 100 µM
same,GI50,SK-OV-3 ovarian,> 100 µM
same,TGI,SK-OV-3 ovarian,> 100 µM
same,GI50,EKVX NSCLC,> 100 µM
same,TGI,EKVX NSCLC,> 100 µM
same,GI50,SW-620 colon,> 100 µM
same,TGI,SW-620 colon,> 100 µM
same,GI50,SN12C renal,> 100 µM
same,TGI,SN12C renal,> 100 µM
same,GI50,HT29 colon,> 100 µM
same,TGI,HT29 colon,> 100 µM
same,GI50,SK-MEL-28 melanoma,> 100 µM
same,TGI,SK-MEL-28 melanoma,> 100 µM
same,GI50,SF-539 CNS,> 100 µM
same,TGI,SF-539 CNS,> 100 µM
same,GI50,SF-295 CNS,> 100 µM
same,TGI,SF-295 CNS,> 100 µM
same,GI50,786-0 renal,> 100 µM
same,TGI,786-0 renal,> 100 µM
same,GI50,SF-268 CNS,> 100 µM
same,TGI,SF-268 CNS,> 100 µM
same,GI50,HOP-92 NSCLC,> 100 µM
same,TGI,HOP-92 NSCLC,> 100 µM
same,GI50,SNB-19 CNS,> 100 µM
same,TGI,SNB-19 CNS,> 100 µM
same,GI50,MCF7 breast,> 100 µM
same,TGI,MCF7 breast,> 100 µM
same,GI50,RPMI-8226 leukemia,> 100 µM
same,TGI,RPMI-8226 leukemia,> 100 µM
same,GI50,CCRF-CEM leukemia,> 100 µM
same,TGI,CCRF-CEM leukemia,> 100 µM
same,GI50,NCI-H23 lung,> 100 µM
same,TGI,NCI-H23 lung,> 100 µM
same,GI50,HCC-2998 colon,> 100 µM
same,TGI,HCC-2998 colon,> 100 µM
same,GI50,A498 renal,> 100 µM
same,TGI,A498 renal,> 100 µM
same,GI50,MDA-MB-435,> 100 µM
same,TGI,MDA-MB-435,> 100 µM
same,GI50,NCI/ADR-RES ovarian,> 100 µM
same,TGI,NCI/ADR-RES ovarian,> 100 µM
same,GI50,HOP-62 NSCLC,> 100 µM
same,TGI,HOP-62 NSCLC,> 100 µM
same,GI50,NCI-H460 lung,> 100 µM
same,TGI,NCI-H460 lung,> 100 µM
same,GI50,OVCAR-5 ovarian,> 100 µM
same,TGI,OVCAR-5 ovarian,> 100 µM
same,GI50,COLO 205 colon,> 100 µM
same,TGI,COLO 205 colon,> 100 µM
same,GI50,A549 NSCLC,> 100 µM
same,TGI,A549 NSCLC,> 100 µM
same,GI50,HCT-15 colon,> 100 µM
same,TGI,HCT-15 colon,> 100 µM
same,GI50,ACHN renal,> 100 µM
same,TGI,ACHN renal,> 100 µM
same,GI50,DU-145 prostate,> 100 µM
same,TGI,DU-145 prostate,> 100 µM
same,GI50,KM12 colon,> 100 µM
same,TGI,KM12 colon,> 100 µM
same,GI50,HCT-116 colon,> 100 µM
same,TGI,HCT-116 colon,> 100 µM
same,GI50,HS 578T breast,> 100 µM
same,TGI,HS 578T breast,> 100 µM
same,GI50,NCI-H522 lung,> 100 µM
same,TGI,NCI-H522 lung,> 100 µM
same,GI50,OVCAR-3 ovarian,> 100 µM
same,TGI,OVCAR-3 ovarian,> 100 µM
same,GI50,SK-MEL-5 melanoma,> 100 µM
same,TGI,SK-MEL-5 melanoma,> 100 µM
same,GI50,TK-10 renal,> 100 µM
same,TGI,TK-10 renal,> 100 µM
same,GI50,U251 CNS,> 100 µM
same,TGI,U251 CNS,> 100 µM
same,GI50,LOX IMVI melanoma,> 100 µM
same,TGI,LOX IMVI melanoma,> 100 µM
same,GI50,PC-3 prostate,> 100 µM
same,TGI,PC-3 prostate,> 100 µM
same,GI50,UACC-257 melanoma,> 100 µM
same,TGI,UACC-257 melanoma,> 100 µM
same,GI50,MDA-MB-231 breast,> 100 µM
same,TGI,MDA-MB-231 breast,> 100 µM
same,GI50,CAKI-1 renal,> 100 µM
same,TGI,CAKI-1 renal,> 100 µM
same,GI50,M14 melanoma,> 100 µM
same,TGI,M14 melanoma,> 100 µM
same,GI50,NCI-H226 lung,> 100 µM
same,TGI,NCI-H226 lung,> 100 µM
same,GI50,RXF 393 renal,> 100 µM
same,TGI,RXF 393 renal,> 100 µM
same,GI50,UO-31 renal,21.5 µM
same,TGI,UO-31 renal,> 100 µM
same,GI50,UACC-62 melanoma,> 100 µM
same,TGI,UACC-62 melanoma,> 100 µM
